Where two headings read alike, the source gives them in different places.
Experiments:
[1] = system: P-glycoprotein; assay: [125I]iodomycin photolabelling of Pgp in EHR2/DNR+ cells; format: binding, mice; conditions: iodomycin 10 nM
Excerpt: (§1) Br. J. Cancer (1993), 67, 226 231 ? Macmillan Press Ltd., 1993 Effect of anthracycline analogs on photolabelling of p-glycoprotein by I'25 liodomycin and [3Hlazidopine: Relation to lipophilicity and inhibition of daunorubicin transport in multidrug resistant cells E. Frichel*, E.J.F. Demant2, M. Sehested3 & N.I. Nissen' 'Department of Medicine and Hematology, L 4042, Rigshospitalet-University Hospital, 9, Blegdamsvej, DK-2100 Copenhagen; 2Department of Biochemistry C, The Panum Institute, University of Copenhagen, DK-2200 Copenhagen; 3Department of Pathology, Sundby Hospital, DK-2300 Copenhagen, Denmark. […] We photoaffinity labelled P-glycoprotein in daunorubicin (DNR) resistant Ehrlich ascites tumour cells (EHR2/DNR + ) with a ['25I]iodinated Bolton-Hunter derivative of daunorubicin ([1251]iodomycin) and with [3H]azidopine. […] Anthracyclines are among the most valuable cytostatic agents in clinical use. Their usefulness is, however, limited by the occurrence of tumour cells with the multidrug resistance (MDR) phenotype (Beck, 1987; Bliek & Borst, 1989; Endicott & Ling, 1989; Kaye & Merry, 1985; Moscow & Cowan, 1988). MDR cells have an enhanced amount of a 150- 170 kDa plasma membrane glycoprotein, P-glycoprotein (Pgp) (Kartner et al., 1983 and 1985; Cornwell et al., 1986; Bradley et al., 1988; Beck, 1991a; Roninson, 1991), that may function as a low-specificity transport protein to facilitate the outward transport of cytotoxic agents including the anthracyclines. Thus, increased drug efflux and therefore decreased accumulation is seen in MDR cells not only to the drug for which resistance is developed but also to a wide spectrum of chemically unrelated cytostatics (Bradley et al., 1988; Fojo et al., 1985). […] The aim of this study was to examine these analogs for their ability to com- pete for ligand binding to Pgp and thus service as inhibitors for the outward drug transport system in MDR cells. Anthracycline inter-actions with Pgp were assessed using the specific photolabelling of the protein with [251I]iodomycin, a ['251]iodinated Bolton-Hunter derivative of DNR (Busche et al., 1989a) and with [3H]azidopine ([3H]AZP) which photolabels Pgp in plasma membrane vesicles from EHR2/ DNR + cells (Sehested et al., 1990) as well as in whole cells (Safa et al., 1987; Friche et al., 1990c). […] Material and methods Chemicals Duanorubicin (DNR); AdriamycinR (Doxorubicin/HCl, DOX); 4'-deoxy-4'-iododoxorubicin (DIDOX); and 4- demethoxy-DNR were kindly supplied from Farmitalia, Carlo Erba (Milan, Italy). N,N-dibenzyl-DNR was a gift from Dr Nicholas Bachur, (Baltimore, MD) and N- benzyladriamycin-14-valerate (AD 198) a gift from Professor M. Israel (Memphis, TN). Mitoxantrone was purchased from Lederle (New Jersey, USA), Aclacinomycin A from Lund- beck & Co A/S (Copenhagen, Denmark), OncovinR (Vincristine/HCl, VCR) from Eli Lilly Deutschland GMBH (Giessen, Germany), Cremophor EL from BASF Aktiengesellschaft (Ludwigshafen, Germany), and Tween 80 from the Sigma Chemical Co. (St. Louis, MO). ['251]-Bolton- Hunter reagent (2000 Ci mmol 1), [3H]AZP (42 Ci mmol- ') and non-radioactive AZP were purchased from Amersham International (Amersham, UK). All other chemicals were of analytical grade. Organic solvents were distilled prior to use. Triethylamine was distilled over ninhydrin and anhydrous methanol was stored over molecular sieve (3 A). Tumour cells Cells were either the wild-type Ehrlich ascites tumor line (EHR2) or the corresponding DNR-resistant line (EHR2/ DNR + ) (Dan0, 1971) displaying both the MDR phenotype (Sehested et al., 1990) and as recently shown, decreased Correspondence: E. Friche. Received 22 April 1992; and in revised form 21 September 1992.

[2] = system: P-glycoprotein; assay: [3H]azidopine photolabelling of Pgp in EHR2/DNR+ cells; format: binding, mice; conditions: [3H]AZP 0.4 µM
Excerpt: as §1

[3] = pH 7.45
Excerpt: as §1

[4] = system: EHR2/DNR+; conditions: in vivo; ref Friche et al., 1987; cited from earlier work
[5] = system: EHR2/DNR+; conditions: in vitro clonogenic assay; ref Friche et al., 1990b; cited from earlier work

COc1cccc2c1C(=O)c1c(O)c3c(c(O)c1C2=O)C[C@@](O)(C(C)=O)C[C@@H]3O[C@H]1C[C@H](N)[C@H](O)[C@H](C)O1 [Daunorubicin]
Per cent inhibition of [125I]iodomycin photolabelling of Pgp ([1]; 10 µM drug (1000-fold molar excess), 30 min 37°C): 52.5% | Per cent inhibition of [125I]iodomycin photolabelling of Pgp ([1]; 20 µM drug): 82.7% | Per cent inhibition of [125I]iodomycin photolabelling of Pgp ([1]; 20 µM drug, listed as DNR): 83% | Per cent inhibition of [125I]iodomycin photolabelling of Pgp ([1]; 40 µM drug): 90.6% | Per cent inhibition of [125I]iodomycin photolabelling of Pgp ([1]; 40 µM drug, listed as DNR): 90% | Per cent inhibition of [3H]AZP photolabelling of Pgp ([2]; 10 µM drug): 8.0% | Per cent inhibition of [3H]AZP photolabelling of Pgp ([2]; 20 µM drug): 33.2% | Per cent inhibition of [3H]AZP photolabelling of Pgp ([2]; 40 µM drug (100-fold molar excess)): 50.0% | Lipid solubility (O/W), octanol/water partition coefficient [3]: 7.85 | Resistance of EHR2/DNR+ subline [4]: at least 16 fold | Resistance of EHR2/DNR+ subline [5]: about 80 fold

Source: PMC1968196, “Effect of anthracycline analogs on photolabelling of p-glycoprotein by [125I]iodomycin and [3H]azidopine: relation to lipophilicity and inhibition of daunorubicin transport in multidrug resistant cells” (British Journal of Cancer, 1993)
